# Test results from patent publication EP4803080A1, “METHOD FOR TREATING LEUKEMIA” (Shenzhen TargetRx Co., Ltd., priority 2023, dated 2025).
# Assays:
# [1] = system: CML-AP with T315I mutation; experiment: Phase I dose escalation and dose expansion clinical trial: efficacy in CML-AP subjects with T315I mutation; type: in vivo, humans
# Description: This study is a single-arm, open-label, dose-escalation and dose-expansion Phase I clinical trial.
# The dose-escalation phase of this trial consists of about 8 dose groups, with oral administration under fasting conditions. Subjects in all dose groups will receive a single dose on Day 1 (D1), followed by pharmacokinetic (PK) and tolerability observations. […] After entering the multiple-dose period, subjects in the first dose group will initially receive twice-daily (BID) dosing (if PK data from the single-dose period are available, the dosing frequency during the multiple-dose period may be adjusted based on the PK data). The dosing frequency for subjects in subsequent dose groups after entering the multiple-dose period will be determined based on available PK and tolerability data. Throughout the trial, dosing frequency for all subjects may be adjusted based on continuously updated safety and PK data.
# (§1) A continuous reassessment method (CRM) based on the principle of the escalation with overdose control (EWOC) design will be used to recommend the next specific dose for each dose escalation, thereby completing dose escalation and determining the maximum tolerated dose (MTD). If both the investigator and sponsor believe that higher dose groups may offer better efficacy and manageable safety, the EWOC-based CRM method may be used to explore higher doses. All enrolled subjects will receive long-term treatment with the test drug and undergo evaluations for safety, tolerability, and preliminary efficacy.
# After obtaining certain research data from the dose-escalation phase, the investigator may comprehensively consider safety, efficacy, and other information to decide whether to enroll additional subjects at the MTD and/or lower dose levels to determine the recommended Phase II dose (RP2D). Two to four suitable dosing regimens will be selected for expansion in the target population (including subjects enrolled at the target dose levels during the escalation phase).
# A total of 8 dose groups were established: 10 mg bid, 20 mg bid, 40 mg bid, 80 mg bid, 40 mg qd, 80 mg qd, 160 mg qd, and 240 mg qd.
# The dose expansion phase was conducted in the following 3 cohorts: • Cohort 1: Subjects with chronic phase (CP) chronic myeloid leukemia (CML) who had previously received at least ≥2 different TKIs and were T315I-negative. A total of 3 dose groups were established: 40 mg qd, 80 mg qd, and 240 mg qd; • Cohort 2: Subjects with chronic phase (CP) chronic myeloid leukemia (CML) who have previously received ≥1 TKI and were T315I-positive. A total of 2 dose groups were established: 40 mg qd and 240 mg qd; • Cohort 3: Subjects with accelerated phase (AP) chronic myeloid leukemia (CML) who have previously received ≥1 TKI, regardless of T315I positivity. A total of 1 dose group was established: 240 mg qd.
# [2] = Phase I clinical trial: safety and tolerability; type: in vivo
# Description: To explore the safety and tolerability of multiple doses of Compound A in humans, and to determine the maximum tolerated dose (MTD) and the recommended Phase II dose (RP2D).
# This study is a single-arm, open-label, dose-escalation and dose-expansion Phase I clinical trial. The trial plans to enroll patients with chronic myeloid leukemia (CML) who have developed resistance or intolerance after prior treatment with BCR-ABL1 tyrosine kinase inhibitor(s) (TKIs).
# The dose-escalation phase of this trial consists of about 8 dose groups, with oral administration under fasting conditions. Subjects in all dose groups will receive a single dose on Day 1 (D1), followed by pharmacokinetic (PK) and tolerability observations. If no drug-related adverse events of Grade 3 or higher occur during the single-dose period, the subject will enter the multiple-dose period (i.e., the treatment period) after 3-5 days (for the first dose group, the multiple-dose period begins 5 days after the first dose [i.e., starting on Day 6]; for subsequent dose groups, the interval will be determined based on available tolerability and PK data). After entering the multiple-dose period, subjects in the first dose group will initially receive twice-daily (BID) dosing (if PK data from the single-dose period are available, the dosing frequency during the multiple-dose period may be adjusted based on the PK data). The dosing frequency for subjects in subsequent dose groups after entering the multiple-dose period will be determined based on available PK and tolerability data. Throughout the trial, dosing frequency for all subjects may be adjusted based on continuously updated safety and PK data.
# as §1
# [3] = CML-AP and T315I mutation, failed or intolerant to third-generation or later TKI therapy
# [4] = CML-AP and T315I mutation, failed or intolerant to third-generation or later TKI therapy, 12 evaluable
# [5] = CML-AP and T315I mutation, failed or intolerant to third-generation or later TKI therapy, Kaplan-Meier method
# [6] = CML-AP subjects with T315I mutation, as of June 2, 2024
# [7] = CML subjects, safety data cutoff June 2, 2023
smiles,measurement,setting,value
"O=C(Nc1ccc(OC(F)(F)Cl)cc1)c1cnc(N2CC[C@@H](F)C2)c(-c2cnccn2)c1 [Compound A, (R)-N-(4-(chlorodifluoromethoxy)phenyl)-6-(3-fluoropyrrolidin-1-yl)-5-(pyrazin-2-yl)nicotinamide]",median EFS,[1]; [3],5.55 months
same,median PFS,[1]; [3],not reached
same,median duration of MaHR response,[1]; [3],11.93 months
same,median time to achieve CCyR,[1]; [3],"4.19 (2.76, 5.62) months"
same,median time to achieve MCyR,[1]; [3],"2.69 (2.69, 2.76) months"
same,CCyR,[1]; [4],16.7%
same,MCyR,[1]; [4],25.0%
same,MMR,[1]; [4],8.3%
same,MaHR,"[1]; CML-AP and T315I mutation, failed or intolerant to third-generation or later TKI therapy, 13 evaluable",76.9%
same,12-month EFS rate,[1]; [5],18.0%
same,12-month PFS rate,[1]; [5],75.8%
same,18-month cumulative incidence rate of CCyR,[1]; [6],30%
same,18-month cumulative incidence rate of MCyR,[1]; [6],36%
same,18-month cumulative incidence rate of MMR,[1]; [6],15%
same,dose-dependent increase in the frequency of adverse events,"[2]; CML subjects, 10 mg BID to 240 mg QD, safety data cutoff June 2, 2023",no observed dose-dependent increase
same,Grade ≥3 hematological adverse events associated with the test drug,[2]; [7],mostly manageable with treatment interruption
same,non-hematological toxicity compared to ATP-competitive TKIs,[2]; [7],significant improvement in non-hematological toxicity
same,pigmentation or severe arterial occlusive events and venous thromboembolic events,[2]; [7],no reported
same,safety and tolerability profile,[2]; [7],favorable safety and tolerability profile
same,tolerability,"[2]; CML-CP and CML-AP patients, extended follow-up, as of June 2, 2024",good tolerability
